In the supplement of paper PMC11061612:

What was measured:
[1] = compound: O=C(Nc1ccc2[nH]nc(-c3ccncc3)c2c1)[C@@H]1CCN(CC(=O)N2CCN(c3ccc(-c4ncccn4)cc3)CC2)C1; conditions: max 5 µM
Method in brief: (§1)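 Cancer cell lines were dosed for 72 hours (final DMSO typically 0.2%) after 24 hours at 37°C and 5% CO2 in 1536-well plates containing 7.5 μl DMEM/F12 or RPMI with 10% FBS. Viability came from CellTiter-Glo 2.0 luminescence, scaled between blank-well and DMSO-well means, and dose responses were fitted to a two-parameter logistic curve with a non-linear mixed effects model. The single-agent IC50 was obtained from this fit.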

Paclitaxel = compound: CC(=O)O[C@H]1C(=O)[C@@]2(C)[C@H]([C@H](OC(=O)c3ccccc3)[C@]3(O)C[C@H](OC(=O)[C@H](O)[C@@H](NC(=O)c4ccccc4)c4ccccc4)C(C)=C1C3(C)C)[C@]1(OC(C)=O)CO[C@@H]1C[C@@H]2O [Paclitaxel]; conditions: max 3 µM
Method in brief: as §1

Taselisib = compound: Cc1nc(-c2cn3c(n2)-c2ccc(-c4cnn(C(C)(C)C(N)=O)c4)cc2OCC3)n(C(C)C)n1 [Taselisib]; conditions: max 10 µM
Method in brief: as §1

Olaparib = compound: O=C(c1cc(Cc2n[nH]c(=O)c3ccccc23)ccc1F)N1CCN(C(=O)C2CC2)CC1 [Olaparib]; conditions: max 10 µM
Method in brief: as §1

Etoposide = compound: COc1cc([C@@H]2c3cc4c(cc3[C@@H](O[C@@H]3O[C@@H]5CO[C@@H](C)O[C@H]5[C@H](O)[C@H]3O)[C@H]3COC(=O)[C@H]23)OCO4)cc(OC)c1O [Etoposide]; conditions: max 10 µM
Method in brief: as §1

AZD1775 = compound: C=CCn1c(=O)c2cnc(Nc3ccc(N4CCN(C)CC4)cc3)nc2n1-c1cccc(C(C)(C)O)n1 [AZD1775]; conditions: max 3 µM
Method in brief: as §1

AZD1390 = compound: CC(C)n1c(=O)n(C)c2cnc3cc(F)c(-c4ccc(OCCCN5CCCCC5)nc4)cc3c21 [AZD1390]; conditions: max 0.3 µM
Method in brief: as §1

Gefitinib = compound: COc1cc2ncnc(Nc3ccc(F)c(Cl)c3)c2cc1OCCCN1CCOCC1 [Gefitinib]; conditions: max 10 µM
Method in brief: as §1

Gemcitabine = compound: Nc1ccn([C@@H]2O[C@H](CO)[C@@H](O)C2(F)F)c(=O)n1 [Gemcitabine]; conditions: max 0.3 µM
Method in brief: as §1

SRA737 = compound: N#Cc1cnc(Nc2cc(NC[C@H]3CNCCO3)c(C(F)(F)F)cn2)cn1 [SRA737]; conditions: max 10 µM
Method in brief: as §1

Trametinib = compound: CC(=O)Nc1cccc(-n2c(=O)n(C3CC3)c(=O)c3c(Nc4ccc(I)cc4F)n(C)c(=O)c(C)c32)c1 [Trametinib]; conditions: max 1 µM
Method in brief: as §1

SN-38 = compound: CCc1c2c(nc3ccc(O)cc13)-c1cc3c(c(=O)n1C2)COC(=O)[C@]3(O)CC [SN-38]; conditions: max 0.3 µM
Method in brief: as §1

AZD5363 = compound: C1CN(CCC1(C(=O)N[C@@H](CCO)C2=CC=C(C=C2)Cl)N)C3=NC=NC4=C3C=CN4 [AZD5363]; conditions: max 10 µM
Method in brief: as §1

Carboplatin = compound: C1CC(C1)(C(=O)[O-])C(=O)[O-].N.N.[Pt+2] [Carboplatin]; conditions: max 10 µM
Method in brief: as §1

Alisertib = compound: COc1cc(Nc2ncc3c(n2)-c2ccc(Cl)cc2C(c2c(F)cccc2OC)=NC3)ccc1C(=O)O [Alisertib]; conditions: max 10 µM
Method in brief: as §1

Savolitinib = compound: C[C@@H](c1ccc2nccn2c1)n1nnc2ncc(-c3cnn(C)c3)nc21 [Savolitinib]; conditions: max 1 µM
Method in brief: as §1

Palbociclib = compound: CC(=O)c1c(C)c2cnc(Nc3ccc(N4CCNCC4)cn3)nc2n(C2CCCC2)c1=O [Palbociclib]; conditions: max 10 µM
Method in brief: as §1

MK-2206 = compound: NC1(c2ccc(-c3nc4ccn5c(=O)[nH]nc5c4cc3-c3ccccc3)cc2)CCC1 [MK-2206]; conditions: max 10 µM
Method in brief: as §1

5-Fluorouracil = compound: O=c1[nH]cc(F)c(=O)[nH]1 [5-Fluorouracil]; conditions: max 20 µM
Method in brief: as §1

Crizotinib = compound: C[C@@H](Oc1cc(-c2cnn(C3CCNCC3)c2)cnc1N)c1c(Cl)ccc(F)c1Cl [Crizotinib]; conditions: max 10 µM
Method in brief: as §1

Lapatinib = compound: CS(=O)(=O)CCNCc1ccc(-c2ccc3ncnc(Nc4ccc(OCc5cccc(F)c5)c(Cl)c4)c3c2)o1 [Lapatinib]; conditions: max 10 µM
Method in brief: as §1

AZD7648 = compound: Cc1cc2ncnn2cc1Nc1ncc2c(n1)n(C1CCOCC1)c(=O)n2C [AZD7648]; conditions: max 10 µM
Method in brief: as §1

AZD8186 = compound: C[C@@H](Nc1cc(F)cc(F)c1)c1cc(C(=O)N(C)C)cc2c(=O)cc(N3CCOCC3)oc12 [AZD8186]; conditions: max 10 µM
Method in brief: as §1

AZD2811 = compound: CCN(CCO)CCCOc1ccc2c(Nc3cc(CC(=O)Nc4cccc(F)c4)[nH]n3)ncnc2c1 [AZD2811]; conditions: max 1 µM
Method in brief: as §1

Venetoclax = compound: CC1(C)CCC(CN2CCN(c3ccc(C(=O)NS(=O)(=O)c4ccc(NCC5CCOCC5)c([N+](=O)[O-])c4)c(Oc4cnc5[nH]ccc5c4)c3)CC2)=C(c2ccc(Cl)cc2)C1 [Venetoclax]; conditions: max 1 µM
Method in brief: as §1

AZD0156 = compound: CN(C)CCCOc1ccc(-c2ccc3ncc4c(c3c2)n(C2CCOCC2)c(=O)n4C)cn1 [AZD0156]; conditions: max 3 µM
Method in brief: as §1

AZD6738 = compound: C[C@@H]1COCCN1C2=NC(=NC(=C2)C3(CC3)[S@](=N)(=O)C)C4=C5C=CNC5=NC=C4 [AZD6738]; conditions: max 10 µM
Method in brief: as §1

AZD5153 = compound: COc1nnc2ccc(N3CCC(c4ccc(OCCN5CCN(C)C(=O)[C@H]5C)cc4)CC3)nn12 [AZD5153]; conditions: max 1 µM
Method in brief: as §1

Prexasertib = compound: COc1cccc(OCCCN)c1-c1cc(Nc2cnc(C#N)cn2)n[nH]1 [Prexasertib]; conditions: max 1 µM
Method in brief: as §1

Selumetinib = compound: Cn1cnc2c(F)c(Nc3ccc(Br)cc3Cl)c(C(=O)NOCCO)cc21 [Selumetinib]; conditions: max 10 µM
Method in brief: as §1

AZD5991 = compound: Cc1c2c(nn1C)CSCc1cc(n(C)n1)CSc1cc(c3ccccc3c1)OCCCc1c(C(=O)O)n(C)c3c-2c(Cl)ccc13 [AZD5991]; conditions: max 1 µM
Method in brief: as §1

Dasatinib = compound: CC1=C(C(=CC=C1)Cl)NC(=O)C2=CN=C(S2)NC3=CC(=NC(=N3)C)N4CCN(CC4)CCO [Dasatinib]; conditions: max 2 µM
Method in brief: as §1

SG3199 = compound: CC1=CN2[C@@H](C1)C=NC3=CC(=C(C=C3C2=O)OC)OCCCCCOC4=C(C=C5C(=C4)N=C[C@@H]6CC(=CN6C5=O)C)OC [SG3199]; conditions: max 0.001 µM
Method in brief: as §1

Doxorubicin = compound: COc1cccc2c1C(=O)c1c(O)c3c(c(O)c1C2=O)C[C@@](O)(C(=O)CO)C[C@@H]3O[C@H]1C[C@H](N)[C@H](O)[C@H](C)O1 [Doxorubicin]; conditions: max 1 µM
Method in brief: as §1

AZD4320 = compound: CN(CC[C@H](CSC1=CC=CC=C1)NC2=C(C=C(C=C2)S(=O)(=O)NC(=O)C3=CC=C(C=C3)N4CCC(CC4)[C@H](C5=CC=CC=C5C6=CC=C(C=C6)Cl)O)S(=O)(=O)C(F)(F)F)CCO [AZD4320]; conditions: max 1 µM
Method in brief: as §1

| Cell Line | IC50, cell viability 72 h [1] [µM] | IC50, cell viability 72 h (Paclitaxel) [µM] | IC50, cell viability 72 h (Taselisib) [µM] | IC50, cell viability 72 h (Olaparib) [µM] | IC50, cell viability 72 h (Etoposide) [µM] | IC50, cell viability 72 h (AZD1775) [µM] | IC50, cell viability 72 h (AZD1390) [µM] | IC50, cell viability 72 h (Gefitinib) [µM] | IC50, cell viability 72 h (Gemcitabine) [µM] | IC50, cell viability 72 h (SRA737) [µM] | IC50, cell viability 72 h (Trametinib) [µM] | IC50, cell viability 72 h (SN-38) [µM] | IC50, cell viability 72 h (AZD5363) [µM] | IC50, cell viability 72 h (Carboplatin) [µM] | IC50, cell viability 72 h (Alisertib) [µM] | IC50, cell viability 72 h (Savolitinib) [µM] | IC50, cell viability 72 h (Palbociclib) [µM] | IC50, cell viability 72 h (MK-2206) [µM] | IC50, cell viability 72 h (5-Fluorouracil) [µM] | IC50, cell viability 72 h (Crizotinib) [µM] | IC50, cell viability 72 h (Lapatinib) [µM] | IC50, cell viability 72 h (AZD7648) [µM] | IC50, cell viability 72 h (AZD8186) [µM] | IC50, cell viability 72 h (AZD2811) [µM] | IC50, cell viability 72 h (Venetoclax) [µM] | IC50, cell viability 72 h (AZD0156) [µM] | IC50, cell viability 72 h (AZD6738) [µM] | IC50, cell viability 72 h (AZD5153) [µM] | IC50, cell viability 72 h (Prexasertib) [µM] | IC50, cell viability 72 h (Selumetinib) [µM] | IC50, cell viability 72 h (AZD5991) [µM] | IC50, cell viability 72 h (Dasatinib) [µM] | IC50, cell viability 72 h (SG3199) [µM] | IC50, cell viability 72 h (Doxorubicin) [µM] | IC50, cell viability 72 h (AZD4320) [µM] |
| --- | --- | --- | --- | --- | --- | --- | --- | --- | --- | --- | --- | --- | --- | --- | --- | --- | --- | --- | --- | --- | --- | --- | --- | --- | --- | --- | --- | --- | --- | --- | --- | --- | --- | --- | --- |
| BxPC-3 (Pancreatic Carcinoma) | 4.09 | 0.602 | > 10 | > 10 | > 10 | 1.71 | > 0.3 | > 10 | > 0.3 | > 10 | 0.487 | > 0.3 | > 10 | > 10 | > 10 | > 1 | > 10 | > 10 | > 20 | > 10 | > 10 | > 10 | > 10 | > 1 | > 1 | > 3 | > 10 | > 1 | 0.0684 | > 10 | > 1 | 1.85 | > 0.001 | > 1 | > 1 |
| C-33-A (Cervical Carcinoma) | > 5 | 0.019 | > 10 | > 10 | 0.909 | 0.206 | > 0.3 | 8.59 | 0.0256 | > 10 | 0.938 | 0.0201 | 2.64 | > 10 | > 10 | > 1 | > 10 | > 10 | > 20 | > 10 | > 10 | > 10 | > 10 | > 1 | > 1 | > 3 | 1.42 | > 1 | 0.0528 | > 10 | > 1 | 0.781 | > 0.001 | 0.217 | > 1 |
| COR-L88 (Small Cell Lung Carcinoma) | > 5 | > 3 | > 10 | > 10 | > 10 | 1.76 | > 0.3 | > 10 | > 0.3 | > 10 | > 1 | > 0.3 | > 10 | > 10 | > 10 | > 1 | > 10 | > 10 | > 20 | > 10 | > 10 | > 10 | > 10 | > 1 | > 1 | > 3 | > 10 | > 1 | 0.0459 | > 10 | > 1 | > 2 | > 0.001 | > 1 | 0.11 |
| CPC-N (Small Cell Lung Carcinoma) | > 5 | 0.0211 | 8.22 | > 10 | 5.13 | 0.297 | > 0.3 | > 10 | 0.144 | 1.76 | > 1 | > 0.3 | > 10 | > 10 | 0.67 | > 1 | > 10 | > 10 | > 20 | 6.99 | > 10 | > 10 | > 10 | 0.0598 | 0.721 | > 3 | 2.13 | 0.774 | 0.00403 | > 10 | > 1 | > 2 | > 0.001 | 0.887 | 0.178 |
| ES6 (Ewing's Sarcoma) | > 5 | > 3 | 3.63 | > 10 | > 10 | > 3 | > 0.3 | > 10 | 0.268 | > 10 | > 1 | > 0.3 | > 10 | > 10 | > 10 | > 1 | > 10 | > 10 | > 20 | > 10 | > 10 | > 10 | > 10 | > 1 | > 1 | > 3 | > 10 | > 1 | 0.481 | > 10 | > 1 | > 2 | > 0.001 | > 1 | > 1 |
